Measured values published in ChEMBL document CHEMBL3507680, “University of Dundee, Gates Library screen for HepG2 cell viability”.

Assay: Human HepG2 cell viability assay in 384 well format
Format: toxicity, cell-based
Set-up: dose 125 nL, time 70.5 hour; concentration not given beside the values
Conditions: HepG2 cells, read-out: Inhibition

Q: With `Cc1ccc(CN2CCN(C(=O)C3CCC3)[C@@H]3CS(=O)(=O)C[C@@H]32)cc1C` as the compound, how does the cytotoxicity at 70.5 h read?
A: -0.626%

Q: With `CCS(=O)(=O)c1ncc(CN2CCOCC2)n1CCCc1ccccc1` as the compound, how does the cytotoxicity at 70.5 h read?
A: 19.9%

Q: With `Cc1cccc(-n2nc(CC(C)C)nc2CCn2ccc(=O)[nH]c2=O)c1` as the compound, how does the cytotoxicity at 70.5 h read?
A: -2.09%

Q: Which cytotoxicity at 70.5 h does the source give for `CC(C)c1cc(=O)[nH]c(-c2ccccc2CN2CCC(C)(C)C2)n1` here?
A: 5.1%

Q: For `Cc1cc(C2CCC2)nc(N2CCN(Cc3nccn3C)CC2)n1`, which cytotoxicity at 70.5 h is on record?
A: -1.45%

Q: With `CN(C)CCNC(=O)CCC1CCN(C(=O)c2ccc(O)cn2)CC1` as the compound, how does the cytotoxicity at 70.5 h read?
A: -6.92%

Q: With `CCOC(=O)CCNC(=O)N1CCOC(Cc2cccc(OC)c2)C1` (stereo not given) as the compound, how does the cytotoxicity at 70.5 h read?
A: -9.71%

Q: For `O=C(Cc1ccc(F)cc1Cl)N[C@@H]1CCNC[C@H]1O`, which cytotoxicity at 70.5 h is on record?
A: -6%

Q: With `Cc1ccc(OC2(C(=O)O)CCN(C(=O)c3cccc(F)c3)CC2)cn1` as the compound, how does the cytotoxicity at 70.5 h read?
A: 2.13%

Q: For `COCc1nnc(C(=O)N2CC(N3CCCCC3)C2)o1`, which cytotoxicity at 70.5 h is on record?
A: -9.01%

Q: With `CCS(=O)(=O)N1CC[C@@H]2[C@@H](CCC(=O)N2CCc2ccccc2)C1` as the compound, how does the cytotoxicity at 70.5 h read?
A: 1.58%

Q: Which cytotoxicity at 70.5 h does the source give for `CC(C)CN1CCN(C)C(CCO)C1` (stereo not given) here?
A: -8.39%

Q: For `CN(Cc1ccncn1)C(=O)CCc1[nH]nc2c1CCCC2`, which cytotoxicity at 70.5 h is on record?
A: -5.7%

Q: Which cytotoxicity at 70.5 h does the source give for `Cc1n[nH]c(C)c1CCc1ccc(S(C)(=O)=O)cc1` here?
A: -13.7%

Q: Which cytotoxicity at 70.5 h does the source give for `Cc1cccc(-n2nc(CC(C)C)nc2CCCC(N)=O)c1` here?
A: -6.23%

Q: With `Cc1nnsc1CN1C[C@@H]2CC[C@H](C1)N(Cc1c(C)noc1C)C2=O` as the compound, how does the cytotoxicity at 70.5 h read?
A: -0.902%

Q: With `Cc1ccsc1C(=O)N1CCC(c2nccn2Cc2ccncc2)CC1` as the compound, how does the cytotoxicity at 70.5 h read?
A: -9.49%

Q: With `Nc1nc(CCC(=O)N2C[C@H](c3ccccc3)[C@@H](N)C2)cs1` as the compound, how does the cytotoxicity at 70.5 h read?
A: -20.5%

Q: With `O=C(c1nc(=O)[nH]c2ccccc12)N1CCCC(CC2CC2)(C(=O)O)C1` (stereo not given) as the compound, how does the cytotoxicity at 70.5 h read?
A: -8.79%

Q: Which cytotoxicity at 70.5 h does the source give for `O=C(NCc1nnc2n1CCC2)c1cn(-c2ccccc2)nn1` here?
A: -5.59%

Q: For `CN(C)Cc1cc(-c2nccn2CCn2cccn2)ccc1O`, which cytotoxicity at 70.5 h is on record?
A: -11.1%

Q: Which cytotoxicity at 70.5 h does the source give for `O=c1n(CC2CCCO2)nc(CC2CCNCC2)n1-c1ccccc1` (stereo not given) here?
A: -11%

Q: For `CN1CC2(CCNCC2)CC1C(=O)NCCCNc1cccnc1` (stereo not given), which cytotoxicity at 70.5 h is on record?
A: 17.1%

Q: Which cytotoxicity at 70.5 h does the source give for `CCc1nc(N2CCC3(CCC(=O)N(Cc4ccncc4)C3)CC2)no1` here?
A: 10.6%

Q: Which cytotoxicity at 70.5 h does the source give for `COc1nccnc1N1CCC(C(=O)O)(n2ccc(C(C)(C)C)n2)CC1` here?
A: -10.8%

Q: With `Cc1nc(C(=O)N2CCN(c3ccc(Cl)c(Cl)c3)CC2)cs1` as the compound, how does the cytotoxicity at 70.5 h read?
A: -3.76%

Q: For `Cc1ncsc1CCN(C)C(=O)c1ncccc1O`, which cytotoxicity at 70.5 h is on record?
A: -7.99%

Q: Which cytotoxicity at 70.5 h does the source give for `Cc1nn(C)c2nc(N(Cc3ccccc3)CC3CCCO3)sc12` (stereo not given) here?
A: -11%

Q: Which cytotoxicity at 70.5 h does the source give for `Cc1ncc(CC(=O)N2CCC3(CCC(=O)N(C4CC4)C3)CC2)c(=O)[nH]1` here?
A: 5.88%

Q: With `Cc1cccc2cc(C(=O)N3CCN(S(=O)(=O)N(C)C)CC3)n(C)c12` as the compound, how does the cytotoxicity at 70.5 h read?
A: 1.01%

Q: Which cytotoxicity at 70.5 h does the source give for `CCc1nnc(CN2CCN(c3cccc(OC)c3)C(=O)C2)o1` here?
A: 12.1%

Q: Which cytotoxicity at 70.5 h does the source give for `Cc1nc2ccccc2nc1CN1CCn2nc(CCC(=O)O)cc2C1` here?
A: -7.38%

Q: Which cytotoxicity at 70.5 h does the source give for `CCn1c(C2CCCN(Cc3cc(OC)cc(OC)c3)C2)nn(C)c1=O` (stereo not given) here?
A: -4.68%

Q: For `CCc1cc(N(C)Cc2cc[nH]n2)n2nc(C)c(C)c2n1`, which cytotoxicity at 70.5 h is on record?
A: -4.44%

Q: For `CCCc1nc(C(=O)N2CCn3nc(C(=O)OC)cc3C2)cs1`, which cytotoxicity at 70.5 h is on record?
A: 16.6%

Q: Which cytotoxicity at 70.5 h does the source give for `CC(=O)N[C@@H]1CN(c2nc(C(N)=O)cs2)C[C@H]1c1ccc(C)o1` here?
A: -15.3%

Q: Which cytotoxicity at 70.5 h does the source give for `Cn1ccnc1CN(CCO)C(=O)C1CCN(C(=O)C2CC2)CC1` here?
A: 0.876%

Q: For `Cc1[nH]c2c(C)ccc(C)c2c1CC(=O)NCC(O)c1cccnc1` (stereo not given), which cytotoxicity at 70.5 h is on record?
A: -10.2%

Q: For `CCc1cnc(N)nc1NCCCn1nc(C)nc1C`, which cytotoxicity at 70.5 h is on record?
A: -9.39%

Q: With `COCCN1CCN(C(=O)c2ccc(COC)o2)[C@H]2CS(=O)(=O)C[C@H]21` as the compound, how does the cytotoxicity at 70.5 h read?
A: 11.2%

Q: For `CCNc1ccnc(NCC2(N(C)C)CCOCC2)n1`, which cytotoxicity at 70.5 h is on record?
A: -5.81%

Q: With `Cc1nccn1CC1CCCN(Cc2ccc(-c3cccnc3)cc2)C1` (stereo not given) as the compound, how does the cytotoxicity at 70.5 h read?
A: -9.2%

Q: Which cytotoxicity at 70.5 h does the source give for `COc1ccc(OC)c(C2CCN(C3CCN(C(C)=O)CC3)C2)c1` (stereo not given) here?
A: 2.82%

Q: Which cytotoxicity at 70.5 h does the source give for `Cc1ccc(N2CCC(CCN3CCCC3=O)CC2)nn1` here?
A: -22%

Q: With `c1ccc(OCCCn2ccnc2-c2cn(C3CCNCC3)nn2)cc1` as the compound, how does the cytotoxicity at 70.5 h read?
A: -4.27%

Q: For `CN(C)C(Cn1ccnc1-c1ccccc1C(=O)O)c1ccccc1Cl` (stereo not given), which cytotoxicity at 70.5 h is on record?
A: 10.5%

Q: For `N#Cc1cccc(N2CCOC3(CNCCOC3)C2)n1` (stereo not given), which cytotoxicity at 70.5 h is on record?
A: 15.5%

Q: Which cytotoxicity at 70.5 h does the source give for `COCc1nnc(C(=O)N2CCCC(O)C2)o1` (stereo not given) here?
A: -1.1%

Q: For `CCc1cc(NCCCOC2CCN(C)CC2)ncn1`, which cytotoxicity at 70.5 h is on record?
A: -15.3%

Q: For `CN(C)CCNc1cc(-c2ncccc2Cl)c2cc[nH]c2n1`, which cytotoxicity at 70.5 h is on record?
A: 1.89%

Q: For `O=C(C1CCCCO1)N1CCc2ncnc(NCc3ccon3)c2CC1` (stereo not given), which cytotoxicity at 70.5 h is on record?
A: -9.14%

Q: With `O=C(CC1COCCN1S(=O)(=O)c1ccccc1)NCc1ccccn1` (stereo not given) as the compound, how does the cytotoxicity at 70.5 h read?
A: -15.7%

Q: Which cytotoxicity at 70.5 h does the source give for `Nc1nc2c(c(N3CCC(CN4CCCC4=O)CC3)n1)CCNCC2` here?
A: -8.27%

Q: Which cytotoxicity at 70.5 h does the source give for `CC[C@H](C)Cn1nc(C2CCNCC2)n(Cc2ccccc2)c1=O` here?
A: -2.63%

Q: For `CNc1nc(C(=O)NCc2cccnc2N(C)C)cs1`, which cytotoxicity at 70.5 h is on record?
A: 1.65%

Q: With `CCn1ncnc1CN1CCC(CNC(=O)c2cccc(C)n2)C1` (stereo not given) as the compound, how does the cytotoxicity at 70.5 h read?
A: -5.47%

Q: Which cytotoxicity at 70.5 h does the source give for `CCc1noc(CN(CC)C(=O)CC2C(=O)NCCN2CC(C)(C)C)n1` (stereo not given) here?
A: 0.786%

Q: Which cytotoxicity at 70.5 h does the source give for `OCCn1ncc2c1CN(CC1CCOc3ccccc3C1)C2` (stereo not given) here?
A: -0.723%

Q: With `Cc1nc(C)c(Cn2ccnc2-c2cc(CN(C)C)cs2)s1` as the compound, how does the cytotoxicity at 70.5 h read?
A: 2.87%

Q: Which cytotoxicity at 70.5 h does the source give for `CCCN1CCc2[nH]cnc2C12CCN(C(=O)CCn1cccn1)CC2` here?
A: -2.96%

Q: With `Cn1cccc1-c1cc(C(=O)NCCc2nnc(N)s2)[nH]n1` as the compound, how does the cytotoxicity at 70.5 h read?
A: 4.96%

Q: Which cytotoxicity at 70.5 h does the source give for `Cc1cccc(C)c1Oc1ncccc1CNC(=O)C1(C)CCCNC1` (stereo not given) here?
A: -7.62%

Q: With `Cc1cc(C(=O)N2C[C@H]3CC[C@@H]2CN(Cc2ccccn2)C3)nc(N)n1` as the compound, how does the cytotoxicity at 70.5 h read?
A: 23.1%

Q: Which cytotoxicity at 70.5 h does the source give for `CCCN(CC)C(=O)c1cc(Cn2c(C)nc3ccccc32)[nH]n1` here?
A: -4.58%

Q: Which cytotoxicity at 70.5 h does the source give for `Cc1cccnc1CC(C)N(C)C(=O)c1cccs1` (stereo not given) here?
A: -10.3%

Q: For `CC(=O)Nc1ccc(Oc2ccc(CN3CCCC3)cc2F)cc1`, which cytotoxicity at 70.5 h is on record?
A: -3.88%

Q: With `O=C(NCc1cccnc1N1CCc2ccccc2C1)c1cnc[nH]1` as the compound, how does the cytotoxicity at 70.5 h read?
A: -10.2%

Q: For `O=C(CCCc1cn[nH]c1)N1C[C@@H](CN2CCCC2)C[C@H](CO)C1`, which cytotoxicity at 70.5 h is on record?
A: -6.82%

Q: Which cytotoxicity at 70.5 h does the source give for `CCCOC(C)C(=O)N1CCC(O)(c2ccc3nc(C)ccc3c2)CC1` (stereo not given) here?
A: -3.14%

Q: With `Cc1ccc(-c2noc(CN3CC(n4cc(C)cn4)C3)n2)cc1` as the compound, how does the cytotoxicity at 70.5 h read?
A: -0.527%

Q: With `CCn1cnnc1C1CCN(C(=O)c2ccc(Cl)cc2OC)CC1` as the compound, how does the cytotoxicity at 70.5 h read?
A: -9.75%

Q: For `CCc1nccn1C1CCCN(C(=O)c2ccc3c(c2)nnn3C)C1` (stereo not given), which cytotoxicity at 70.5 h is on record?
A: -5.62%

Q: With `CC(C)c1cc(NC(=O)c2ccc([S+]([O-])C(C)C)cc2)[nH]n1` (stereo not given) as the compound, how does the cytotoxicity at 70.5 h read?
A: -3.24%

Q: Which cytotoxicity at 70.5 h does the source give for `CC(C)c1cc(NC(=O)c2ccncc2)[nH]n1` here?
A: 2.62%

Q: For `Cc1nc(C)n(CC2CCCN2Cc2ncc(C(C)(C)C)o2)n1` (stereo not given), which cytotoxicity at 70.5 h is on record?
A: -4.1%

Q: With `CCc1noc(CNc2ccc(C(=O)N3CCCC3)cc2C)n1` as the compound, how does the cytotoxicity at 70.5 h read?
A: 10.5%

Q: For `CCc1nccn1C1CCCN(C(=O)c2ccc(-n3ccnc3)cc2)C1` (stereo not given), which cytotoxicity at 70.5 h is on record?
A: -10.5%

Q: With `Cc1cnn(CC2CCCCN2Cc2ncc(C(C)(C)C)o2)c1` (stereo not given) as the compound, how does the cytotoxicity at 70.5 h read?
A: -7.03%

Q: With `Cc1oc(C(=O)O)cc1S(=O)(=O)Nc1cc(Br)ccc1Cl` as the compound, how does the cytotoxicity at 70.5 h read?
A: 1.56%

Q: With `CC(C)c1nn(C)c(N(C)C)c1CNC(C)c1ccccc1F` (stereo not given) as the compound, how does the cytotoxicity at 70.5 h read?
A: -1.04%
